Among the data in ChEMBL document CHEMBL2073983, “Characterization of the mouse bile salt export pump overexpressed in the baculovirus system” (Hepatology, 2001) are activity and Km values, retold here.

Common to all, as to format: functional, cell membranes, Membrane vesicle
The target of data set [1] is T1, Bile salt export pump (Bsep) (Mus musculus, UniProt Q9QY30).
T1 sequence (Q9QY30 whole entry): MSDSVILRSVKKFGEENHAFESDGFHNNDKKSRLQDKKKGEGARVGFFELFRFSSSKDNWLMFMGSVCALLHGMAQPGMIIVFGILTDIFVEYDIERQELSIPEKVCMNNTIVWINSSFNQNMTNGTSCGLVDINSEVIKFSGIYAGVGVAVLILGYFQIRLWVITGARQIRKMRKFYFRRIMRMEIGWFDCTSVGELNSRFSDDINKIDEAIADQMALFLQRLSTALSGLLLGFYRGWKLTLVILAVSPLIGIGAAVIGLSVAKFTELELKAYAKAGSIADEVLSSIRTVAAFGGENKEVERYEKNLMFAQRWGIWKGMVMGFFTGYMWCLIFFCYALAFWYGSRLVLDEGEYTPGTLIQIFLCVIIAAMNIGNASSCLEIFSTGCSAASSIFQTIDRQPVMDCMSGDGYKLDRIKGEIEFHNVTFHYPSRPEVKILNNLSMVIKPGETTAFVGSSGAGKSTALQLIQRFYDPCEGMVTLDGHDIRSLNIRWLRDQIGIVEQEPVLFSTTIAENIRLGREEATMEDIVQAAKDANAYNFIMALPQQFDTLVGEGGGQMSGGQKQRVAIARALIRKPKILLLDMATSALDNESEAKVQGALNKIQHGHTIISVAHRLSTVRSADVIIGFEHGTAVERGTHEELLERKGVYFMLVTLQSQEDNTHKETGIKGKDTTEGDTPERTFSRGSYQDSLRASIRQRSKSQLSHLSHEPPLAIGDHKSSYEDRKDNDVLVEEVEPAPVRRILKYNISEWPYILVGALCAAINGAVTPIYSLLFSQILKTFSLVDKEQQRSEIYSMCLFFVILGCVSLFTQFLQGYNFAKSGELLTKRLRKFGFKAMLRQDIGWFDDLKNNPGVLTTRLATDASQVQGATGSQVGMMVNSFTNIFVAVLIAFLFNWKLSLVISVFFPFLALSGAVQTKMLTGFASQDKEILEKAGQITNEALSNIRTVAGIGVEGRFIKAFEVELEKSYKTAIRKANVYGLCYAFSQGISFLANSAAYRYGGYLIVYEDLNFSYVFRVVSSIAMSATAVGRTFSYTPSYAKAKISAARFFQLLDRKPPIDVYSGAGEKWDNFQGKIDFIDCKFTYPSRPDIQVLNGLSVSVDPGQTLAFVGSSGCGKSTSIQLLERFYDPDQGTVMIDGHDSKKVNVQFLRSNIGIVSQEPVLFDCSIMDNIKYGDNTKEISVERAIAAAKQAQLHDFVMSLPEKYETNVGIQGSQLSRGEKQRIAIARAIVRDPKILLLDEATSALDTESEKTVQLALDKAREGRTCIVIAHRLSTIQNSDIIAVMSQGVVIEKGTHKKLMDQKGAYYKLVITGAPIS
The experiment in a line: TP_TRANSPORTER: inhibition of Taurochenodeoxycholate-stimulated ATPase activity (Glibenclamide: 60 uM) in membrane vesicles from Bsep-expressing Sf9 cells. The arrangement: scale not given: the % may be the effect or the level left. The conditions noted are these: probe Taurochenodeoxycholate, read-out: Activity.

Data set [2] addresses T1, Bile salt export pump (Bsep). Nature of the data set: TP_TRANSPORTER: inhibition of Taurochenodeoxycholate-stimulated ATPase activity (Rifamycin SV: 100 uM) in membrane vesicles from Bsep-expressing Sf9 cells. The following applies: probe Taurochenodeoxycholate, read-out: Activity. The arrangement: scale not given: the % may be the effect or the level left.
Substrate in data set [3]: C[C@H](CCC(=O)NCCS(=O)(=O)O)[C@H]1CC[C@H]2[C@@H]3[C@H](O)C[C@@H]4C[C@H](O)CC[C@]4(C)[C@H]3CC[C@]12C
The experiment in a line: TP_TRANSPORTER: uptake in membrane vesicles isolated from Bsep-expressing Sf9 cells.

Substrate in data set [4]: C[C@H](CCC(=O)NCC(=O)O)[C@H]1CC[C@H]2[C@@H]3[C@H](O)C[C@@H]4C[C@H](O)CC[C@]4(C)[C@H]3C[C@H](O)[C@]12C
Nature of the data set: TP_TRANSPORTER: uptake in membrane vesicles from Bsep-expressing Sf9 cells.

For `COc1ccc(Cl)cc1C(=O)NCCc1ccc(S(=O)(=O)NC(=O)NC2CCCCC2)cc1` [GLYBURIDE], in data set [1], the activity at 60 µM turned out to be 47.2%. As to `CO[C@H]1/C=C/O[C@@]2(C)Oc3c(C)c(O)c4c(O)c(cc(O)c4c3C2=O)NC(=O)/C(C)=C\C=C\[C@H](C)[C@H](O)[C@@H](C)[C@@H](O)[C@@H](C)[C@H](OC(C)=O)[C@@H]1C` [RIFAMYCIN], in data set [2], the activity at 100 µM is 29.8%.

B1: Bile salt export pump (Mus musculus) (protein)
chain: T1 sequence (Q9QY30 whole entry)
With B1, the Km in data set [3] stood at 5.7 µM; in data set [4], 19.5 µM.

What is called Km is the substrate concentration at which the rate is half of its maximum.
